Source: US20250002450A1, “CATIONIC STEROID COMPOUNDS, METHOD OF OBTAINING THEREOF, FORMULATIONS COMPRISING THEREOF AND THEIR USES” (UNIVERSIDADE DO PORTO, priority 2021, published 2025)
Converted amounts (≈) assume the structure as drawn.

Legend:
[1] = test system: Escherichia coli ATCC 25922; test: Antibacterial MIC/MBC (broth microdilution); type: cell-based; conditions: Escherichia coli ATCC 25922
Text: Twelve reference bacterial strains and nine MDR clinically relevant bacterial strains were used in this study. Gram-negative bacteria comprised reference strains E. coli ATCC 25922, K. pneumoniae ATCC 13883, Salmonella enterica serovar Typhimurium CECT 443, P. aeruginosa ATCC 27853, A. baumannii ATCC 19606, C. jejuni ATCC 33560 (ATCC—American Type Culture Collection; CECT—Colección Espanola de Cultivos Tipo); clinical isolates E. coli SA/2, an extended-spectrum β-lactamase (ESBL)-producing strain and P. aeruginosa 33b, a pan-drug-resistant isolate; and animal isolates C. jejuni P5/4, a ciprofloxacin-resistant strain, C. jejuni 4432, C. jejuni 4433, C. jejuni 4448, and E. coli 2252, a COL-resistant strain [42]. Gram-positive strains included S. aureus ATCC 29213, E. faecalis ATCC 29212, S. pyogenes ATCC 19615, and environmental isolates methicillin-resistant S. aureus (MRSA) 66/1 [43], and VAN-resistant enterococci (VRE) E. faecalis B3/101 [44]. Gram-negative fish pathogens Yersinia ruckeri ATCC 29473, Listonella anguillarum ATCC 1924, and Tenacibaculum maritimum ATCC 43397 were also included.
Strains were kept in Trypto-Casein Soy agar (TSA—Biokar Diagnostics, Allone, Beauvais, France) slants and, before each assay, were sub-cultured in Mueller-Hinton agar (MHA—Biokar Diagnostics, Allone, Beauvais, France). Y. ruckeri ATCC 29473 and L. anguillarum ATCC 1924 were kept in Nutrient Agar (Condalab, Madrid, Spain) and T. maritimum ATCC 43397 was kept in TMM agar (Condalab, Madrid, Spain), and were sub-cultured in the respective culture media before each assay. For S. pyogenes ATCC 19615, CAMHB was supplemented with 3.75% lysed horse blood (LBH—Oxoid, Basingstoke, England), whereas for C. jejuni it was supplemented with 2.5% LHB. Colony-forming unit counts of the inoculum were conducted to determine the initial inoculum size (which should be approximately 5×10^5 CFU/mL). Sterility and growth controls were included in each assay. The 96-well U-shaped untreated polystyrene microtiter plates were incubated for 20 h at 37 degrees C. (42 degrees C. for C. jejuni, in a microaerophilic atmosphere) and the minimal inhibitory concentration (MIC) was determined as the lowest concentration of compound that prevented visible growth. The minimal bactericidal concentration (MBC) was determined by spreading 100 μL of the content of the wells with no visible growth on MH plates. The MBC was determined as the lowest concentration of compound that killed 99.9% of the initial inoculum after overnight incubation at 37 degrees C. Two independent assays were performed for reference and MDR strains.
An initial screening of the antibacterial activity of the compounds was performed by the Kirby-Bauer disk diffusion method, as recommended by the Clinical and Laboratory Standards Institute (CLSI). Briefly, sterile 6 mm blank paper disks (Oxoid, Basingstoke, England) impregnated with 15 μg of each compound were placed on inoculated MH agar plates. A blank disk with dimethylsulfoxide (DMSO) was used as a negative control. MH inoculated plates were incubated for 18-20 h at 37 degrees C. At the end of incubation, the inhibition halos where measured. The MIC was used to determine the antibacterial activity of each compound, in accordance with the recommendations of the CLSI. Two-fold serial dilutions of the compounds were prepared in Mueller-Hinton Broth 2 (MHB2—Sigma-Aldrich, St. Louis, MO, USA) within the concentration range of 0.062-64 μg/mL. CTX ranging between 0.031-16 μg/mL was used as a control. Sterility and growth controls were included in each assay. Purity checks and colony counts of the inoculum suspensions were also performed in order to ensure that the final inoculum density closely approximates the intended number (5×10^5 CFU/mL). The MIC was determined as the lowest concentration of compound that inhibited growth of the bacteria. The MBC was assessed by spreading 10 μL of culture collected from wells showing no visible growth on MH agar plates. […]

[2] = test system: E. coli ATCC 25922; test: Enzymatic/metabolic activity, MTT assay; type: cell-based, Escherichia coli; conditions: 0, 1, 18 h
Method: To determine whether compound 1 could also affect enzymatic activity, 2-(4,5-dimethyl-2-thiazolyl)-3,5-diphenyl-2H-tetrazolium bromide (MTT) assay was performed. This assay can also be used as an indirect measure of cellular viability, as tetrazolium salts are reduced to purple formazan by metabolically active cells. E. coli ATCC 25922 cells were treated with compound 1 and COL and AMP were used as controls, as described above. Measurements were made at 0, 1, and 18 h.
Enzymatic activity was evaluated by the MTT assay, as previously described, with some modifications. Cell suspensions of E. coli ATCC 25922 were prepared as described above, as well as test conditions and controls. At each time point (0, 1, and 18 h), 500 μL aliquots were collected, centrifuged at 3500 rpm for 10 min, the supernatant was removed, and 300 μL of MTT solution (0.5 mg/mL in CAMHB, at 36 degrees C.) (Thiazolyl Blue Tetrazolium Bromide, Alfa Aesar, Ward Hill, MA, USA) were added. After a 30 min incubation at 36° C., the insoluble formazan product resulting from the conversion of MTT by metabolically active cells was solubilized with 300 μL of DMSO. 100 μL of each sample were transferred in duplicate to the wells of a microtiter plate and the extent of the reduction of MTT to formazan was quantified by measuring the absorbance at 570 nm (Thermo Scientific Multiskan® EX, Thermo Fisher Scientific, Waltham, MA, USA). Three independent assays were performed in duplicate, and results are expressed as a percentage of untreated control.

[3] = test system: E. coli ATCC 25922; test: Membrane integrity, propidium iodide influx assay (SYTO 9/PI); type: cell-based, Escherichia coli; conditions: 0, 1, 18 h
Method: The influx of PI in E. coli ATCC 25922 treated with 2×MIC, MIC, and ½×MIC of compound 1 was evaluated using a commercial kit that includes fluorescent nucleic acid stains SYTO® 9 and PI. SYTO® 9 can enter cells with intact or damaged membranes, generally labeling both, whereas PI only penetrates cells with severe membrane lesions, causing a reduction in SYTO® 9 fluorescence when both dyes are present.
In these assays, COL and AMP were used as controls. COL is a polycationic antimicrobial peptide with a complex mode of action, that ultimately solubilizes the bacterial cell membrane. AMP is an aminopenicillin that inhibits cell wall synthesis by inhibiting penicillin-binding proteins. E. coli ATCC 25922 cells were treated with compound 1 and, at several time-points (0, 1, and 18 h), samples were taken, and SYTO® 9/PI ratio was determined ([FIG. 4]). The entrance of PI is reflected in a reduction of this ratio.
Briefly, E. coli ATCC 25922 colonies from overnight cultures in MHA were suspended in CAMHB to prepare an inoculum with a final concentration of approximately 5×10^5 CFU/mL. The tubes were incubated overnight at 36° C. in a water bath with shaking. Following this, the cell suspensions were centrifuged at 3500 rpm for 15 min, the supernatant was removed, the cells were carefully resuspended in fresh CAMHB and the suspension was adjusted to 0.5 McFarland. An aliquot of this suspension was then added to each tube of CAMHB alone (control) or CAMHB plus an appropriate amount of test compound. […] The tubes were incubated at 36 degrees C. in a water bath with shaking and, at pre-established time points (0, 1, and 18 h), […] aliquots were retrieved for further analysis. After the exposure time, cells were washed two times, resuspended in 0.85% NaCl, and 100 μL of each cell suspension was distributed in the wells of a microtiter plate, in triplicate. 100 μL of a mixture of 30 μM PI and 5 μM SYTO® 9 prepared in ultrapure water were added to each well, and the plates were incubated at room temperature, in the dark, for 15 min. The fluorescence intensity of the stained bacterial suspensions was determined using a microplate reader (Synergy HT, BioTek Instruments, Winooski, VT, USA) by two consecutive measurements with excitation wavelength 485 nm and emission wavelength 528 nm (SYTO® 9) or 590 nm (PI). Data were analyzed by subtracting background fluorescence from each sample, dividing the fluorescence intensity of SYTO® 9 by fluorescence intensity of PI, and the results are presented as a percentage of control. Three independent assays were performed in triplicate for each experimental condition.

Compound | MIC [1] [µg/mL] | metabolic activity (MTT) vs untreated control ([2]; 4 μg/mL) | reduction in SYTO 9/PI ratio vs untreated control ([3]; 4 μg/mL) | metabolic activity (MTT) vs untreated control ([2]; 1 μg/mL) | metabolic activity (MTT) vs untreated control ([2]; 8 μg/mL) | reduction in SYTO 9/PI ratio vs untreated control ([3]; 1 μg/mL) | reduction in SYTO 9/PI ratio vs untreated control ([3]; 8 μg/mL)
CC1(C)S[C@@H]2[C@H](NC(=O)[C@H](N)c3ccccc3)C(=O)N2[C@H]1C(=O)O [AMP] | 4 (≈ 11.4 µM) | did not affect the metabolic activity | not |  |  |  | 
colistin | 1 |  |  | only a significant reduction at 1 h | significant reduction of metabolic activity at all time points | only a significant reduction at 1 h | statistically significant
